Reference: ChEMBL document CHEMBL1201862, “PubChem BioAssay data set” (2004)
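Briefly, cells in 96-well plates were exposed to five compound concentrations for 48 h, and endpoints were estimated by linear interpolation. GI50 is the concentration that inhibits growth by half.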 Calls of active or inactive are those of the source. No stated cut-off is given here; in the data, active = GI50 up to about 1.1 µM and inactive = higher.

Legend:
Test in all cases: DTP human tumour cell line panel, 48 h
MOLT-4 = test system: MOLT-4
UACC-257 = test system: UACC-257
LXFL 529 = test system: LXFL 529
ACHN = test system: ACHN
IGROV-1 = test system: IGROV-1
SNB-75 = test system: SNB-75
OVCAR-5 = test system: OVCAR-5
HCT-116 = test system: HCT-116
HT-29 = test system: HT-29
HOP-92 = test system: HOP-92
HCC 2998 = test system: HCC 2998
A549 = test system: A549
RPMI-8226 = test system: RPMI-8226
A498 = test system: A498
DMS-273 = test system: DMS-273
M14 = test system: M14
HOP-18 = test system: HOP-18
NCI-H226 = test system: NCI-H226
U-251 = test system: U-251
SNB-78 = test system: SNB-78
NCI-H23 = test system: NCI-H23
UACC-62 = test system: UACC-62
KM-20L2 = test system: KM-20L2
HL-60 = test system: HL-60
SK-OV-3 = test system: SK-OV-3
KM12 = test system: KM12
SF-268 = test system: SF-268
K562 = test system: K562
Malme-3M = test system: Malme-3M
HCT-15 = test system: HCT-15
UO-31 = test system: UO-31
SK-MEL-5 = test system: SK-MEL-5
DMS-114 = test system: DMS-114
SNB-19 = test system: SNB-19
LOX IMVI = test system: LOX IMVI
SK-MEL-2 = test system: SK-MEL-2
OVCAR-8 = test system: OVCAR-8
HOP-62 = test system: HOP-62
SW-620 = test system: SW-620
SF-539 = test system: SF-539
DLD-1 = test system: DLD-1
NCI-H460 = test system: NCI-H460
NCI-H522 = test system: NCI-H522
SK-MEL-28 = test system: SK-MEL-28
COLO 205 = test system: COLO 205
XF498 = test system: XF498
OVCAR-4 = test system: OVCAR-4
TK-10 = test system: TK-10
OVCAR-3 = test system: OVCAR-3
EKVX = test system: EKVX
CAKI-1 = test system: CAKI-1
SN12C = test system: SN12C
M19-MEL = test system: M19-MEL
CCRF-CEM = test system: CCRF-CEM
786-0 = test system: 786-0
SR = test system: SR
SF-295 = test system: SF-295
RXF 393 = test system: RXF 393

SMILES: CC(=O)c1ccccc1NC(=O)C(=O)C(C(=O)c1ccc2ccccc2c1)C1OC(=O)c2ccccc21 (stereo unspecified)
- GI50 (MOLT-4): 3.67 µM (inactive)
- GI50 (UACC-257): 13.8 µM (inactive)
- GI50 (LXFL 529): 9.79 µM (inactive)
- GI50 (ACHN): 31.8 µM (inactive)
- GI50 (IGROV-1): 16.1 µM (inactive)
- GI50 (SNB-75): 8.95 µM (inactive)
- GI50 (OVCAR-5): 22.2 µM (inactive)
- GI50 (HCT-116): 13.1 µM (inactive)
- GI50 (HT-29): 34.8 µM (inactive)
- GI50 (HOP-92): 12.4 µM (inactive)
- GI50 (HCC 2998): 4.72 µM (inactive)
- GI50 (A549): 19.3 µM (inactive)
- GI50 (RPMI-8226): 6.11 µM (inactive)
- GI50 (A498): 15.2 µM (inactive)
- GI50 (DMS-273): 6.32 µM (inactive)
- GI50 (M14): 16.4 µM (inactive)
- GI50 (HOP-18): 14.5 µM (inactive)
- GI50 (NCI-H226): 2.26 µM (inactive)
- GI50 (U-251): 6.75 µM (inactive)
- GI50 (SNB-78): 9.4 µM (inactive)
- GI50 (NCI-H23): 6.49 µM (inactive)
- GI50 (UACC-62): 13 µM (inactive)
- GI50 (KM-20L2): 32.2 µM (inactive)
- GI50 (HL-60): 9.91 µM (inactive)
- GI50 (SK-OV-3): 29.2 µM (inactive)
- GI50 (KM12): 18.3 µM (inactive)
- GI50 (SF-268): 9.27 µM (inactive)
- GI50 (K562): 9.04 µM (inactive)
- GI50 (Malme-3M): 3.7 µM (inactive)
- GI50 (HCT-15): 13.7 µM
- GI50 (UO-31): 13.3 µM (inactive)
- GI50 (SK-MEL-5): 11.4 µM (inactive)
- GI50 (DMS-114): 7.98 µM (inactive)
- GI50 (SNB-19): 4.73 µM (inactive)
- GI50 (LOX IMVI): 7.71 µM (inactive)
- GI50 (SK-MEL-2): 10.2 µM (inactive)
- GI50 (OVCAR-8): 11.6 µM (inactive)
- GI50 (HOP-62): 10.7 µM (inactive)
- GI50 (SW-620): 7.83 µM (inactive)
- GI50 (SF-539): 4.72 µM (inactive)
- GI50 (DLD-1): 12.2 µM (inactive)
- GI50 (NCI-H460): 5.43 µM (inactive)
- GI50 (NCI-H522): 10.7 µM (inactive)
- GI50 (SK-MEL-28): 11.3 µM (inactive)
- GI50 (COLO 205): 14.9 µM (inactive)
- GI50 (XF498): 3.13 µM (inactive)
- GI50 (OVCAR-4): 17.2 µM (inactive)
- GI50 (TK-10): 34 µM (inactive)
- GI50 (OVCAR-3): 9.82 µM (inactive)
- GI50 (EKVX): 97.9 µM (inactive)
- GI50 (CAKI-1): 10.6 µM (inactive)
- GI50 (SN12C): 13.7 µM (inactive)
- GI50 (M19-MEL): 8.85 µM (inactive)
- GI50 (CCRF-CEM): 4.42 µM (inactive)
- GI50 (786-0): 6.61 µM (inactive)

SMILES: Cc1c(N(Cc2ccccc2)Cc2ccccc2)nc(S(C)(=O)=O)nc1S(C)(=O)=O
- GI50 (MOLT-4): 2.11 µM (inactive)
- GI50 (UACC-257): 2.09 µM (inactive)
- GI50 (LXFL 529): 1.91 µM (inactive)
- GI50 (ACHN): 4.68 µM (inactive)
- GI50 (IGROV-1): 1.74 µM (inactive)
- GI50 (OVCAR-5): 7.4 µM (inactive)
- GI50 (SR): 1.58 µM (inactive)
- GI50 (HCT-116): 1.66 µM (inactive)
- GI50 (HT-29): 1.94 µM (inactive)
- GI50 (HOP-92): 3.56 µM (inactive)
- GI50 (HCC 2998): 1.79 µM (inactive)
- GI50 (A549): 15.3 µM (inactive)
- GI50 (SF-295): 17.7 µM (inactive)
- GI50 (RPMI-8226): 2.74 µM (inactive)
- GI50 (DMS-273): 2.2 µM (inactive)
- GI50 (M14): 2.14 µM (inactive)
- GI50 (HOP-18): 4.99 µM (inactive)
- GI50 (NCI-H226): 12.7 µM (inactive)
- GI50 (RXF 393): 1.57 µM (inactive)
- GI50 (U-251): 2.53 µM (inactive)
- GI50 (SNB-78): 2.2 µM (inactive)
- GI50 (NCI-H23): 1.72 µM (inactive)
- GI50 (UACC-62): 1.71 µM (inactive)
- GI50 (KM-20L2): 1.74 µM (inactive)
- GI50 (HL-60): 2.09 µM (inactive)
- GI50 (SK-OV-3): 14.4 µM (inactive)
- GI50 (SF-268): 1.95 µM (inactive)
- GI50 (K562): 2.08 µM (inactive)
- GI50 (Malme-3M): 5.36 µM (inactive)
- GI50 (HCT-15): 2.56 µM
- GI50 (UO-31): 12.1 µM (inactive)
- GI50 (SK-MEL-5): 12 µM (inactive)
- GI50 (DMS-114): 1.82 µM (inactive)
- GI50 (SNB-19): 13.4 µM (inactive)
- GI50 (LOX IMVI): 1.84 µM (inactive)
- GI50 (SK-MEL-2): 11.9 µM (inactive)
- GI50 (OVCAR-8): 1.85 µM (inactive)
- GI50 (HOP-62): 14.7 µM (inactive)
- GI50 (SW-620): 1.93 µM (inactive)
- GI50 (SF-539): 13 µM (inactive)
- GI50 (DLD-1): 1.87 µM (inactive)
- GI50 (NCI-H460): 5.14 µM (inactive)
- GI50 (NCI-H522): 1.73 µM (inactive)
- GI50 (XF498): 1.73 µM (inactive)
- GI50 (TK-10): 4.2 µM (inactive)
- GI50 (OVCAR-3): 1.86 µM (inactive)
- GI50 (EKVX): 1.53 µM (inactive)
- GI50 (CAKI-1): 8.07 µM (inactive)
- GI50 (SN12C): 2.08 µM (inactive)
- GI50 (M19-MEL): 1.54 µM (inactive)
- GI50 (CCRF-CEM): 2.2 µM (inactive)

SMILES: CCOC(=O)C(=O)Nc1cccc(C)c1C
- GI50 (MOLT-4): > 100 µM (inactive)
- GI50 (UACC-257): > 100 µM (inactive)
- GI50 (LXFL 529): > 100 µM (inactive)
- GI50 (ACHN): > 100 µM (inactive)
- GI50 (IGROV-1): > 100 µM (inactive)
- GI50 (SNB-75): > 100 µM (inactive)
- GI50 (OVCAR-5): > 100 µM (inactive)
- GI50 (SR): > 100 µM (inactive)
- GI50 (HCT-116): > 100 µM (inactive)
- GI50 (HT-29): > 100 µM (inactive)
- GI50 (HOP-92): > 100 µM (inactive)
- GI50 (HCC 2998): > 100 µM (inactive)
- GI50 (A549): > 100 µM (inactive)
- GI50 (SF-295): > 100 µM (inactive)
- GI50 (RPMI-8226): > 100 µM (inactive)
- GI50 (A498): > 100 µM (inactive)
- GI50 (DMS-273): > 100 µM (inactive)
- GI50 (M14): > 100 µM (inactive)
- GI50 (HOP-18): > 100 µM (inactive)
- GI50 (NCI-H226): > 100 µM (inactive)
- GI50 (U-251): > 100 µM (inactive)
- GI50 (SNB-78): > 100 µM (inactive)
- GI50 (NCI-H23): > 100 µM (inactive)
- GI50 (UACC-62): > 100 µM (inactive)
- GI50 (KM-20L2): > 100 µM (inactive)
- GI50 (HL-60): > 100 µM (inactive)
- GI50 (SK-OV-3): > 100 µM (inactive)
- GI50 (KM12): > 100 µM (inactive)
- GI50 (SF-268): > 100 µM (inactive)
- GI50 (K562): > 100 µM (inactive)
- GI50 (Malme-3M): > 100 µM (inactive)
- GI50 (HCT-15): > 100 µM
- GI50 (UO-31): > 100 µM (inactive)
- GI50 (SK-MEL-5): > 100 µM (inactive)
- GI50 (DMS-114): > 100 µM (inactive)
- GI50 (SNB-19): > 100 µM (inactive)
- GI50 (SK-MEL-2): > 100 µM (inactive)
- GI50 (OVCAR-8): > 100 µM (inactive)
- GI50 (HOP-62): > 100 µM (inactive)
- GI50 (SW-620): > 100 µM (inactive)
- GI50 (SF-539): > 100 µM (inactive)
- GI50 (DLD-1): > 100 µM (inactive)
- GI50 (NCI-H460): > 100 µM (inactive)
- GI50 (NCI-H522): > 100 µM (inactive)
- GI50 (SK-MEL-28): > 100 µM (inactive)
- GI50 (COLO 205): > 100 µM (inactive)
- GI50 (XF498): > 100 µM (inactive)
- GI50 (OVCAR-4): > 100 µM (inactive)
- GI50 (TK-10): > 100 µM (inactive)
- GI50 (OVCAR-3): > 100 µM (inactive)
- GI50 (EKVX): > 100 µM (inactive)
- GI50 (CAKI-1): > 100 µM (inactive)
- GI50 (SN12C): > 100 µM (inactive)
- GI50 (M19-MEL): > 100 µM (inactive)
- GI50 (CCRF-CEM): > 100 µM (inactive)
